Measured values: patent US10041042B2, “Methods for production and use of substance-loaded erythrocytes (S-IEs) for observation and treatment of microvascular hemodynamics” (Novadaq Technologies ULC, priority 2008, dated 2018)

What was measured:
Type in all cases: physicochemical
[1] = Optimum ICG concentration for fluorescence (concentration quenching)
Excerpt: (1) Although many fluorescent dyes, such as ICG dye, do bind to the erythrocyte outer cell membrane, binding is weak and non-covalent, and regardless of the dye concentration and conjugation time, the maximum fluorescence brightness that can be achieved is considerably less than optimum (see FIG. 1). […] (2) Exposure to fluorescence excitation energy for diagnostic purposes must not exceed the safe maximum permissible exposure level for the sensory retina. Since ICG dye is a fairly weak emitter of fluorescence, care must be taken to ensure that the amount of ICG present post-loading is optimal, resulting in maximum fluorescence intensity possible at a given safe excitation energy level. […] Moreover, since ICG is subject to concentration fluorescence quenching—even when inside erythrocytes—the amount of loaded dye must be controlled: too much or too little will not produce the maximum fluorescence. […] Achieving optimal dye concentration is accomplished by controlling the amount of dye in the solution during dialysis once the pores in the cell membranes open; experimentation has determined the optimum amount to be approximately 1.0 μmol/mL dialysed cell-solution (see FIG. 2). […] This also has the advantage of preventing plasma dye-staining and the associated reduction of contrast between cell fluorescence and background brightness once the cells are re-injected. […]

[2] = Infrared fluorescence image of thick and thin layers of ICG with and without Ag colloid; settings: thick (1 cm) layers, 0.250 mg/mL ICG in HAS with or without 4.684 mg/mL Ag colloid, 805 nm
Procedure: FIG. 7 is an infrared fluorescence image comparing the fluorescence enhancement effect of silver colloid in 0.05 mg/mL ICG solutions; samples in the left-hand side contain no colloid, while those in the right-hand side contain colloid; samples at the top are in 1-cm thick tubes, while those at the bottom are 100 microns thick;
FIG. 8 is an infrared fluorescence image of the samples of FIG. 7 showing reflection of the 805-nm wavelength light used to stimulate fluorescence; no barrier filter was placed in front of the CCD camera in this case;
The disparity between fluorescence enhancement reported in the experiments made using glass surfaces on which the dye/colloid conjugates were bound with amino groups (30-fold) and those observed in the in vivo angiograms (2- to 3-fold) apparently was due to the fact that the colloid fluorescence-enhancement effect is manifest in very thin layers of the dye/suspension and suppressed in thick ones. In this figure, the thick samples are at the top, and the thin ones at the bottom; 0.250 mg/mL ICG in HAS is on the left, and 0.250 mg/mL ICG in HAS with 4.684 mg/mL Ag colloid on the right. The array of samples was uniformly illuminated with 805-nm wavelength light, and the ICG fluorescence image was captured. […]

[3] = Near-infrared fluorescence micrographs (40×) of ICG-loaded vs ICG-stained erythrocytes: cell brightness; settings: FIG. 1C, plasma exposed 20 min to stained erythrocytes
Procedure: FIGS. 1A-1D are near-infrared fluorescence micrographs at 40× magnification of erythrocytes, comparing the brightness of cells “stained” with ICG (A—stained in 1 mM ICG solution for 30 min. and B—stained in 2 mM ICG solution for 60 min. to cells into which ICG has been loaded through pores in their membranes; C—stained plasma resulting from exposure for 20 min. to the stained erythrocytes from A; D—dialysed in 1 mM ICG solution for 30 min.);
(1) Although many fluorescent dyes, such as ICG dye, do bind to the erythrocyte outer cell membrane, binding is weak and non-covalent, and regardless of the dye concentration and conjugation time, the maximum fluorescence brightness that can be achieved is considerably less than optimum (see FIG. 1). […] (2) Exposure to fluorescence excitation energy for diagnostic purposes must not exceed the safe maximum permissible exposure level for the sensory retina. Since ICG dye is a fairly weak emitter of fluorescence, care must be taken to ensure that the amount of ICG present post-loading is optimal, resulting in maximum fluorescence intensity possible at a given safe excitation energy level. […] Moreover, since ICG is subject to concentration fluorescence quenching—even when inside erythrocytes—the amount of loaded dye must be controlled: too much or too little will not produce the maximum fluorescence. […]

optimum concentration of dye molecules in the loaded cells; above that level fluorescence quenching occurs ([1]; ICG inserted into S-IEs): about 0.03 mg/mL | fluorescence brightness, thick samples [2]: significantly brighter
SMILES: CC1(C)C(/C=C/C=C/C=C/C=C2\N(CCCCS(=O)(=O)O)c3ccc4ccccc4c3C2(C)C)=[N+](CCCCS(=O)(=O)[O-])c2ccc3ccccc3c21 [ICG, indocyanine green]
optimum amount of dye in the solution during dialysis ([1]; for maximum fluorescence of loaded erythrocytes): approximately 1.0 μmol/mL dialysed cell-solution | affinity of ICG dye molecules: plasma proteins vs erythrocyte outer membrane [3]: greater for plasma proteins than for the erythrocyte outer membrane
